Patent US9249116B2, “Enzyme-activating compounds and compositions” (The Board of Trustees of the University of Illinois, priority 2012, dated 2016)
Like-named read-outs stand apart in the source and are kept apart here.

What was measured:
[1] = system: U-937 cells (human lymphoma); test: 72 Hour IC50 cell death assay (sulforhodamine B); assay type: cell-based
Procedure: After the synthesis was complete, the biological activity of the compounds was evaluated.
U-937 human lymphoma cells were plated into the wells of 96 well plate at a density of 15,000 cells per well in 99 μL of RPMI 1640 growth media with 10% FBS and 1% pen-strep. To each well was added 1 μL of compound stock solutions in DMSO at varying concentrations such that the cells were treated with concentrations between 0 μM and 100 μM compound. Each concentration was tested in quintuplicate per plate. In each plate 5 wells received 20 μM doxorubicin as a positive death control and 5 wells received 1 μL of DMSO as a negative control.
After the 72 hour incubation period, the plates were analyzed using a Sulforhodamine B assay (Vichai and Kirtikara, Nat Protoc 2006, 1, 1112-1116). Specifically, to each well of the plate 25 μL of a 50% (w/v) solution of trichloroacetic acid in H2O was added and the plates were incubated for 4 hours at 4° C. The plates were then washed gently with water five times. The plates were allowed to air dry after which 100 μL of a 0.057% (w/v) Sulforhodamine B in a 1% (v/v) acetic acid solution was added to each well for 30 minutes at room temperature. The plates were gently washed 5 times with 1% (v/v) acetic acid and air dried. 200 μL of 10 mM Tris base (pH 10.4) was added to each well and the plates were placed on an orbital shaker for thirty minutes. The level of SRB was quantified fluorometrically at excitation and emission wavelengths 488 and 585 nm, respectively, on a Molecular Devices plate reader and the percent cell death calculated and normalized to the positive control (100% cell death) and the negative control (0% cell death). The percent cell death was averaged for each compound concentration and plotted as a function of compound concentration. The data were fit to a logistical dose response curve using Table curve 2D and the IC50 value was calculated. The experiment was repeated three times and the average of the calculated IC50 values was reported. The standard error of the mean (SEM) was determined and reported for the triplicate experiments.

[2] = Liver microsome stability assay; assay type: in vitro ADME; conditions: rat liver microsomes, 10 μM, LC/MS
Procedure: FIG. 4. Liver Microsome Stability Assay. Compounds (10 μM) incubated with liver microsomes for 3 h and quenched with MeCN containing internal standard, analyzed by LC/MS (280 nm). Next, the metabolic stability of the compounds was evaluated in rat liver microsomes. The compounds were evaluated for 3 hours at 10 μM, and the metabolites were observed by LC/MS.

[3] = system: mice; test: Assessment of toxicity in vivo; conditions: mice; scale 0 to 3, or time of death
Text: The level of toxicity was rated on a scale of 0 (no observable adverse effect) to 3 (severe toxicity, almost fatal).

[4] = read-out: U-937 72 h IC50 (μM), Table 1, U-937 cells, 72 h

| SMILES | IC50 [1, 4] | RLM 3 h % Stability [2] | Mouse Toxicity [3] | IC50 ([1]; U-937, 72 h, read-out: U-937 72 h IC50 (μM)) |
| --- | --- | --- | --- | --- |
| C=CCc1cccc(/C=N/NC(=O)CN2CCN(C(=O)c3ccccc3)CC2)c1O [Compound 3, N′-(3-allyl-2-hydroxybenzylidene)-2-(4-benzoylpiperazin-1-yl)acetohydrazide] | 12.1 ± 1.3 µM | 89 ± 4% | 3 | – |
| C=CCc1cccc(/C=N/NC(=O)CN2CCN(Cc3ccc(C#N)cc3)CC2)c1O [Compound 4, N′-(3-allyl-2-hydroxybenzylidene)-2-(4-(4-cyanobenzyl)piperazin-1-yl)acetohydrazide] | 13.7 ± 0.9 µM | 48 ± 2% | 1 | – |
| C=CCc1cccc(/C=N/NC(=O)CN2CCN(C(=O)c3ccc(C#N)cc3)CC2)c1O [Compound 5, N′-(3-allyl-2-hydroxybenzylidene)-2-(4-(4-cyanobenzoyl)piperazin-1-yl)acetohydrazide] | 13.1 ± 3.7 µM | 90 ± 4% | death >72 h (greater than 72 hours post-treatment) | – |
| C=CCc1cccc(/C=N/NC(=O)CN2CCN(Cc3ccc(F)cc3)CC2)c1O [Compound 6, N′-(3-allyl-2-hydroxybenzylidene)-2-(4-(4-fluorobenzyl)piperazin-1-yl)acetohydrazide] | 11.1 ± 2.1 µM | 31 ± 1% | 3 | – |
| C=CCc1cccc(/C=N/NC(=O)CN2CCN(Cc3ccc(C(F)(F)F)cc3)CC2)c1O [Compound 8, N′-(3-allyl-2-hydroxybenzylidene)-2-(4-(4-(trifluoromethyl)benzyl)piperazin-1-yl)acetohydrazide] | – | 16 ± 1% | – | – |
| C=CCc1cccc(/C=N/NC(=O)CN2CCN(C(=O)c3ccc(C(F)(F)F)cc3)CC2)c1O [Compound 9, N′-(3-allyl-2-hydroxybenzylidene)-2-(4-(4-(trifluoromethyl)benzoyl)piperazin-1-yl)acetohydrazide] | – | 85 ± 6% | – | – |
| CCCc1cccc(/C=N/NC(=O)CN2CCN(Cc3ccc(S(N)(=O)=O)cc3)CC2)c1O [Compound 11, 4-((4-(2-(2-(2-hydroxy-3-propylbenzylidene)hydrazinyl)-2-oxoethyl)piperazin-1-yl)methyl)benzenesulfonamide] | – | 61 ± 2% | – | – |
| CCCc1cccc(/C=N/NC(=O)CN2CCN(C(=O)c3ccccc3)CC2)c1O [Compound 12, 2-(4-benzoylpiperazin-1-yl)-N′-(2-hydroxy-3-propylbenzylidene)acetohydrazide] | 9.4 ± 1.3 µM | 71 ± 3% | – | – |
| CCCc1cccc(/C=N/NC(=O)CN2CCN(Cc3ccc(C#N)cc3)CC2)c1O [Compound 13, 2-(4-(4-cyanobenzyl)piperazin-1-yl)-N′-(2-hydroxy-3-propylbenzylidene)acetohydrazide] | 9 ± 1.2 µM | 30 ± 2% | – | – |
| CCCc1cccc(/C=N/NC(=O)CN2CCN(C(=O)c3ccc(C#N)cc3)CC2)c1O [Compound 14, 2-(4-(4-cyanobenzoyl)piperazin-1-yl)-N′-(2-hydroxy-3-propylbenzylidene)acetohydrazide] | 12.8 ± 2.7 µM | 61 ± 3% | – | – |
| CCCc1cccc(/C=N/NC(=O)CN2CCN(C(=O)c3ccc(F)cc3)CC2)c1O [Compound 16, 2-(4-(4-fluorobenzoyl)piperazin-1-yl)-N′-(2-hydroxy-3-propylbenzylidene)acetohydrazide] | 7.3 ± 0.9 µM | 69 ± 4% | – | – |
| CCCc1cccc(/C=N/NC(=O)CN2CCN(Cc3ccc(C(F)(F)F)cc3)CC2)c1O [Compound 17] | – | 15 ± 2% | – | – |
| CCCc1cccc(/C=N/NC(=O)CN2CCN(C(=O)c3ccc(C(F)(F)F)cc3)CC2)c1O [Compound 18, N′-(2-hydroxy-3-propylbenzylidene)-2-(4-(4-(trifluoromethyl)benzoyl)piperazin-1-yl)acetohydrazide] | – | 64 ± 1% | – | – |
| O=C(CN1CCN(C(=O)c2ccccc2)CC1)N/N=C/c1cc(F)ccc1O [Compound 21, 2-(4-benzoylpiperazin-1-yl)-N′-(5-fluoro-2-hydroxybenzylidene)acetohydrazide] | 15.7 ± 2.6 µM | 88 ± 1% | – | – |
| N#Cc1ccc(C(=O)N2CCN(CC(=O)N/N=C/c3cc(F)ccc3O)CC2)cc1 [Compound 23, 2-(4-(4-cyanobenzoyl)piperazin-1-yl)-N′-(5-fluoro-2-hydroxybenzylidene)acetohydrazide] | – | 88 ± 4% | – | 15.3 ± 1.3 µM |
| O=C(CN1CCN(C(=O)c2ccc(F)cc2)CC1)N/N=C/c1cc(F)ccc1O [Compound 25, N′-(5-fluoro-2-hydroxybenzylidene)-2-(4-(4-fluorobenzoyl)piperazin-1-yl)acetohydrazide] | 15.3 ± 0.8 µM | 86 ± 2% | – | – |
| C=CCc1cc(F)cc(/C=N/NC(=O)CN2CCN(Cc3ccc(S(N)(=O)=O)cc3)CC2)c1O [Compound 29, 4-((4-(2-(2-(3-allyl-5-fluoro-2-hydroxybenzylidene)hydrazinyl)-2-oxoethyl)piperazin-1-yl)methyl)benzenesulfonamide] | – | 89 ± 3% | – | – |
| C=CCc1cc(F)cc(/C=N/NC(=O)CN2CCN(Cc3ccc(C#N)cc3)CC2)c1O [Compound 31, N′-(3-allyl-5-fluoro-2-hydroxybenzylidene)-2-(4-(4-cyanobenzyl)piperazin-1-yl)acetohydrazide] | 12.7 ± 2 µM | 65 ± 2% | – | – |
| C=CCc1cc(F)cc(/C=N/NC(=O)CN2CCN(C(=O)c3ccc(C#N)cc3)CC2)c1O [Compound 32, N′-(3-allyl-5-fluoro-2-hydroxybenzylidene)-2-(4-(4-cyanobenzoyl)piperazin-1-yl)acetohydrazide] | – | 95 ± 4% | – | – |
| C=CCc1cc(F)cc(/C=N/NC(=O)CN2CCN(Cc3ccc(F)cc3)CC2)c1O [Compound 33, N′-(3-allyl-5-fluoro-2-hydroxybenzylidene)-2-(4-(4-fluorobenzyl)piperazin-1-yl)acetohydrazide] | 10.3 ± 4.1 µM | 57 ± 1% | – | – |
| C=CCc1cc(F)cc(/C=N/NC(=O)CN2CCN(Cc3ccc(C(F)(F)F)cc3)CC2)c1O [Compound 35, N′-(3-allyl-5-fluoro-2-hydroxybenzylidene)-2-(4-(4-(trifluoromethyl)benzyl)piperazin-1-yl)acetohydrazide] | – | 49 ± 3% | – | – |
| C=CCc1cc(F)cc(/C=N/NC(=O)CN2CCN(C(=O)c3ccc(C(F)(F)F)cc3)CC2)c1O [Compound 36, N′-(3-allyl-5-fluoro-2-hydroxybenzylidene)-2-(4-(4-(trifluoromethyl)benzoyl)piperazin-1-yl)acetohydrazide] | – | 90 ± 2% | – | – |
| CCCc1cc(F)cc(/C=N/NC(=O)CN2CCN(Cc3ccc(S(N)(=O)=O)cc3)CC2)c1O [Compound 38, 4-((4-(2-(2-(5-fluoro-2-hydroxy-3-propylbenzylidene)hydrazinyl)-2-oxoethyl)piperazin-1-yl)methyl)benzenesulfonamide] | – | 62 ± 3% | – | – |
| CCCc1cc(F)cc(/C=N/NC(=O)CN2CCN(Cc3ccc(C#N)cc3)CC2)c1O [Compound 40, 2-(4-(4-cyanobenzyl)piperazin-1-yl)-N′-(5-fluoro-2-hydroxy-3-propylbenzylidene)acetohydrazide] | 11.2 ± 0.9 µM | 49 ± 5% | – | – |
| CCCc1cc(F)cc(/C=N/NC(=O)CN2CCN(C(=O)c3ccc(C#N)cc3)CC2)c1O [Compound 41, 2-(4-(4-cyanobenzoyl)piperazin-1-yl)-N′-(5-fluoro-2-hydroxy-3-propylbenzylidene)acetohydrazide] | – | 66 ± 3% | – | – |
| CCCc1cc(F)cc(/C=N/NC(=O)CN2CCN(Cc3ccc(F)cc3)CC2)c1O [Compound 42, N′-(5-fluoro-2-hydroxy-3-propylbenzylidene)-2-(4-(4-fluorobenzyl)piperazin-1-yl)acetohydrazide] | 7.5 ± 0.7 µM | 48 ± 1% | – | – |
| CCCc1cc(F)cc(/C=N/NC(=O)CN2CCN(Cc3ccc(C(F)(F)F)cc3)CC2)c1O [Compound 44, N′-(5-fluoro-2-hydroxy-3-propylbenzylidene)-2-(4-(4-(trifluoromethyl)benzyl)piperazin-1-yl)acetohydrazide] | – | 40 ± 1% | – | – |
| CCCc1cc(F)cc(/C=N/NC(=O)CN2CCN(C(=O)c3ccc(C(F)(F)F)cc3)CC2)c1O [Compound 45, N′-(5-fluoro-2-hydroxy-3-propylbenzylidene)-2-(4-(4-(trifluoromethyl)benzoyl)piperazin-1-yl)acetohydrazide] | – | 64 ± 5% | – | – |
